Key:
[1] = tested on: miR-124-HSV-tk teratomas (H1 ESC line); test: In vivo enrichment of miR-124-HSV-tk teratomas with intratumoral GCV, scRNA-seq; parameters: species or system Rag2−/−;γc−/− immunodeficient mice
Method: (§1) FIGS. 1A-1F: Molecular Sculpting of the Teratoma through miRNAs. (FIG. 1A) Schematic of miRNA-HSV-tk-GFP construct. 2A is gene encoding for a self-cleaving peptide. Upon transcription of construct it will silenced if appropriate endogenously expressed miRNA is present in the cell. (FIG. 1B) Schematic of how developing teratoma should form in the presence of Ganciclovir (GCV, 80 mg/kg/d) if cells were transduced with miRNA-HSV-tk construct. (FIG. 1C) Phase images from light microscopy showing H1 cell survival after 3 and 5 days in the presence of GCV (10 μM). H1 ESC line was either transduced with GFP control (EGIP backbone) or miR-124-HSV-tk-GFP. (FIG. 1D) Fluorescent microscopy and phase images showing HEK293T and HeLA cells transduced with either No GFP control, HSV-tk-GFP, or miR-21-HSV-tk-GFP. (FIG. 1E) Quantification of (FIG. 1D) using flow cytometry and gating based on the presence or absence of GFP. (FIG. 1F) In vivo studies of miR-124-HSV-tk-GFP teratomas in the presence of GCV administration (80 mg/kg/d) showing cell type fraction log fold-change based on different cell types with accompanying Z-scores compared to miR-124-HSV-tk-GFP teratomas in the absence of GCV.
Applicant then tested the miRNA-HSV-tk constructs in vivo with the goal to grow a teratoma that is enriched for a desired lineage. For this task the miR-124-HSV-tk construct was selected to enrich for the neural lineage. After the H1 ESC line was successfully transduced and selected for the miR-124-HSV-tk construct, cells were subcutaneously injected into Rag2^−/−;γc^−/− immunodeficient mice and allowed to form teratomas as described above. Once teratomas reached a minimum of 1 cm in diameter, intratumoral injections with GCV (80 mg/kg/d) for half to tumors began until they grew an appropriate time for extraction (˜10 weeks).
However, enrichment for foregut was also observed. To the best os Applicant's knowledge, there is no known published literature on miR-124 having a role in foregut development.

H1 ESC line = test: HSV-tk suicide gene killing test with GCV in transduced H1 ESC line; assay type: cell-based, human; details: GCV 10 μM, 5 days
Method: as §1, with “(FIG. 1F) In vivo studies of miR-124-HSV-tk-GFP teratomas in the presence of GCV administration (80 mg/kg/d) showing cell type fraction log fold-change based on different cell types with accompanying Z-scores compared to miR-124-HSV-tk-GFP teratomas in the absence of GCV.” left out
miRNA-HSV-tk constructs were tested in vitro in the H1 ESC line. The functionality of the suicide gene HSV-tk was assessed in the presence of GCV. […] Furthermore, the unique miRNA specificity of the constructs was assessed based on cell type. […]

[2] = intratumoral GCV 80 mg/kg/d vs tumor without GCV

Question: With `Nc1nc(O)c2ncn(COC(CO)CO)c2n1` [GCV, ganciclovir] as the molecule, how does the tumor size ([1]; intratumoral GCV 80 mg/kg/d until extraction (~10 weeks) vs tumor without GCV) read?
Answer: The tumor size was “smaller size”.

Question: What about the “cell types depleted (scRNA-seq)” value [1, 2] of the same molecule?
Answer: Its value is “muscle, retinal pigmented epithelium, and many other cell types”.

Question: What about the “cell-type fraction enriched (scRNA-seq)” value [1, 2] of the same molecule?
Answer: The value was “early neurons, neuronal progenitors, Schwann cells, and foregut”.

Question: And the “external heterogeneity of tumor” value [1, 2]?
Answer: Its value is “less heterogeneous”.

Question: What about the “cell survival in the presence of GCV” value (H1 ESC line; H1 cells transduced with GFP control (EGIP backbone alone)) of the same molecule?
Answer: Its value is “unaffected”.

Question: And the “cell survival in the presence of GCV” value (H1 ESC line; H1 cells transduced with the miRNA-HSV-tk construct)?
Answer: Its value is “total cell death”.
